In patent publication US4345938A, “Herbicidal 2-haloacetanilides” (Monsanto Company, priority 1980, dated 1982):

Tests used:
Monochoria vaginalis = assay: Greenhouse transplant rice test, MV; assay type: in vivo; conditions: Pontederia vaginalis, about 3 WAT, read-out: Percent Inhibition, MV
Description: (§1) The test procedure used in this greenhouse test is as follows: Ray silt loam top soil containing about 0.05% by weight of krillium and sifted through a […] screen is fumigated about 5-10 days prior to use. Pots are then filled with said Ray silt loam soil to a level to allow for a 1 in. (2.54 cm) flooding depth. Rice plants (Bluebelle) of 2 to 3 weeks age are transplanted to the pots and bulbs or seeds of the test weeds also planted in the pots. The pots are then flooded and the test chemical applied to the surface of the flood water. The flood water is reduced to allow for germination of the Echinochloa crus-galli (barnyardgrass) seed and subsequently reflooded and maintained in that condition. Observations of percent inhibition using a scale of 0-100% are made about 3 weeks after transplant (WAT).
(§2) The test data in Table III for all compounds was obtained under identical test conditions. The weeds used in the tests herein have the following abbreviations in the tables: Echinochloa crus-galli (EC), Monochloria vaginalis (MV), Cyperus Serotinus (CS), Eleocharis Kuroguwai (EK) and Sagittaria trifolia (ST).

Rice = assay: Greenhouse transplant rice test, rice injury; assay type: in vivo, Rice (Bluebelle); conditions: Oryza sativa, about 3 WAT, read-out: Percent Inhibition, Rice
Description: as §1, §2

Sagittaria trifolia = assay: Greenhouse transplant rice test, ST; assay type: in vivo; conditions: Sagittaria trifolia, about 3 WAT, read-out: Percent Inhibition, ST
Description: as §1, §2

## CCCCOc1cccc(CC)c1N(CC)C(=O)CCl [Example 2, N-ethyl-2'-n-butoxy-6'-ethyl-2-chloroacetanilide]
Monochoria vaginalis; 0.28 Kg/Ha
  inhibition at 280 g/ha: 100%
Monochoria vaginalis; 0.56 Kg/Ha
  inhibition at 560 g/ha: 100%
Monochoria vaginalis; 1.12 Kg/Ha
  inhibition at 1120 g/ha: 100%
Monochoria vaginalis; 2.24 Kg/Ha
  inhibition at 2240 g/ha: 100%
Rice; 0.28 Kg/Ha
  inhibition at 280 g/ha: 0%
Rice; 0.56 Kg/Ha
  inhibition at 560 g/ha: 10%
Rice; 1.12 Kg/Ha
  inhibition at 1120 g/ha: 15%
Rice; 2.24 Kg/Ha
  inhibition at 2240 g/ha: 25%
Sagittaria trifolia; 0.28 Kg/Ha
  inhibition at 280 g/ha: 30%
Sagittaria trifolia; 0.56 Kg/Ha
  inhibition at 560 g/ha: 25%
Sagittaria trifolia; 1.12 Kg/Ha
  inhibition at 1120 g/ha: 70%
Sagittaria trifolia; 2.24 Kg/Ha
  inhibition at 2240 g/ha: 55%
